According to ChEMBL document CHEMBL1155670, “Identification of deoxymiroestrol as the actual rejuvenating principle of "Kwao Keur", Pueraria mirifica. The known miroestrol may be an artifact” (J Nat Prod, 2000):
Calls of active or inactive are those of the source. The rule behind the calls is not given here.

Legend:
MCF7 [1] = test: Growth promoting activity in human MCF7 cells after 7 days by colorimetric methylene blue assay in presence of Toremifene; type: functional, cell-based
MCF7 [2] = test: Growth promoting activity in human MCF7 cells at >10 nM after 7 days by colorimetric methylene blue assay in presence of Toremifene; type: functional, cell-based

| SMILES | Activity (MCF7 [1]) | Activity (MCF7 [2]) |
| --- | --- | --- |
| CC1(C)[C@@H]2C[C@]3(O)CC(=O)[C@@](O)(C4=COc5cc(O)ccc5[C@H]41)[C@@H]2[C@H]3O | Active | Active |
| CC1(C)[C@@H]2C[C@]3(O)CC(=O)[C@@H](C4=COc5cc(O)ccc5[C@H]41)[C@@H]2[C@H]3O | Active | Active |
